One test deals with NF-κB. As to the kind of experiment: NF-κB luciferase reporter assay in A549/NF-κBLuc cells. Format: cell-based, human. As to conditions: Homo sapiens; A549/NF-κBLuc, IL-1β (1 ng/ml) for 4 hours, luciferase activity; read-out: IC50 (μM) IL-1 stimulation. As for the experimental part:
Using lipofectamine (Lifetech Oriental K. K., Tokyo) according to the conventional method, human lung cancer cell line A549 cells (ATCC catalog no. CCL185), which are known to express hiNOS by cytokine stimulation, were co-transfected with pNFκB-Luc, which are plasmid controlled by a NF-κB binding consensus sequence, and pSV2neo (Clontech, U.S.A.), and then A549/NF-κBLuc, the cell that has stably introduced pNFκB-Luc, was selected by adding G418 sulfate (1 mg/ml, Lifetech Oriental K. K.) to the culture medium.
The luciferase activity was measured using the Luciferase Assay System (Promega, U.S.A.).
For orientation: In a reporter assay the amount or activity of a reporter protein is the signal.
Usually IC50 stands for the concentration needed to halve the response being measured. Take `COC1=C(OC)C(=O)C(Cc2cccc(CC(=O)N3CCSCC3)c2)=C(C)C1=O` [Prod. Ex. 59, N-[3-(5,6-Dimethoxy-3-methyl-1,4-benzoquinon-2-ylmethyl)phenylacetyl]thiomorpholine]: the IC50 came out at 12 µM.
Regarding `COC1=C(OC)C(=O)C(Cc2cccc(CC(=O)N3CCOCC3)c2)=C(C)C1=O` [Prod. Ex. 60, N-[3-(5,6-Dimethoxy-3-methyl-1,4-benzoquinon-2-ylmethyl)phenylacetyl]morpholine], the IC50 turned out to be 18 µM.
Still for that read-out and setting: with `COC1=C(OC)C(=O)C(Cc2cccc(CC(=O)NC(C)C)c2)=C(C)C1=O` [Prod. Ex. 61, N-[3-(5,6-Dimethoxy-3-methyl-1,4-benzoquinon-2-ylmethyl)phenylacetyl]isopropylamine] the figure was 24 µM; with `COC1=C(OC)C(=O)C(Cc2cccc(CCCC(=O)N3CCCCC3)c2)=C(C)C1=O` [Prod. Ex. 63, N-[4-[3-(5,6-Dimethoxy-3-methyl-1,4-benzoquinon-2-ylmethyl)phenyl]butanoyl]piperidine], 2 µM.
Still for that read-out and setting: with `COC1=C(OC)C(=O)C(Cc2cccc(CCCC(=O)N3CCSCC3)c2)=C(C)C1=O` [Prod. Ex. 64, N-[4-[3-(5,6-Dimethoxy-3-methyl-1,4-benzoquinon-2-ylmethyl)phenyl]butanoyl]thiomorpholine] the figure was 5 µM; with `COC1=C(OC)C(=O)C(Cc2cccc(CCCC(=O)N3CCOCC3)c2)=C(C)C1=O` [Prod. Ex. 65, N-[4-[3-(5,6-Dimethoxy-3-methyl-1,4-benzoquinon-2-ylmethyl)phenyl]butanoyl]morpholine], 12 µM; with `COC1=C(OC)C(=O)C(Cc2cccc(CCCC(=O)NC(C)C)c2)=C(C)C1=O` [Prod. Ex. 66, N-[4-[3-(5,6-Dimethoxy-3-methyl-1,4-benzoquinon-2-ylmethyl)phenyl]butanoyl]isopropylamine], 3 µM.
The same measure, in the same setting: with `COC1=C(OC)C(=O)C(Cc2ccccc2CCC(=O)N2CCCCC2)=C(C)C1=O` [Prod. Ex. 70, N-[3-[2-(5,6-Dimethoxy-3-methyl-1,4-benzoquinon-2-ylmethyl)phenyl]propionyl]piperidine] the figure was 44 µM.
On to `COC1=C(OC)C(=O)C(Cc2ccccc2CCC(=O)N2CCOCC2)=C(C)C1=O` [Prod. Ex. 71, N-[3-[2-(5,6-Dimethoxy-3-methyl-1,4-benzoquinon-2-ylmethyl)phenyl]propionyl]morpholine], for which the IC50 was 56 µM.
As for `COC1=C(OC)C(=O)C(Cc2ccccc2CCC(=O)N2CCSCC2)=C(C)C1=O` [Prod. Ex. 72, N-[3-[2-(5,6-dimethoxy-3-methyl-1,4-benzoquinon-2-ylmethyl)phenyl]propionyl]thiomorpholine], the IC50 was found to be 42 µM.
Still for that read-out and setting: with `COC1=C(OC)C(=O)C(Cc2ccccc2CCC(=O)NC(C)C)=C(C)C1=O` [Prod. Ex. 73, N-[3-[2-(5,6-Dimethoxy-3-methyl-1,4-benzoquinon-2-ylmethyl)phenyl]propionyl]isopropylamine] the figure was 34 µM; with `COC[C@H]1CCCN1C(=O)CCc1ccc(CC2=C(C)C(=O)C(OC)=C(OC)C2=O)cc1` [Prod. Ex. 76], 14 µM; with `COC1=C(OC)C(=O)C(Cc2ccc(CCC(=O)N3CCC(C(N)=O)CC3)cc2)=C(C)C1=O` [Prod. Ex. 79], 13 µM.
Regarding `COC1=C(OC)C(=O)C(Cc2ccc(CCC(=O)N3CCC(C)CC3)cc2)=C(C)C1=O` [Prod. Ex. 81], the IC50 was found to be 5 µM.
As for `COC1=C(OC)C(=O)C(Cc2ccc(CCC(=O)N3CCCCC3C)cc2)=C(C)C1=O` (centres unmarked) [Prod. Ex. 83], the IC50 amounted to 1 µM.
As for `COC1=C(OC)C(=O)C(Cc2ccc(CCC(=O)N3CCCC(C)C3)cc2)=C(C)C1=O` (centres unmarked) [Prod. Ex. 85], the IC50 was 5 µM.
Take `COC1=C(OC)C(=O)C(Cc2ccc(CCC(=O)Nc3ccc(OC)cc3)cc2)=C(C)C1=O` [Prod. Ex. 94]: the IC50 stood at 1 µM.
Same read-out and setting: with `COC1=C(OC)C(=O)C(Cc2ccc(CCC(=O)Nc3ccccc3O)cc2)=C(C)C1=O` [Prod. Ex. 96] the figure was 17 µM.
Same read-out and setting: with `COC1=C(OC)C(=O)C(Cc2ccc(CCC(=O)Nc3ccc(OC)c(OC)c3)cc2)=C(C)C1=O` [Prod. Ex. 103] the figure was 10 µM.
`COC1=C(OC)C(=O)C(Cc2ccc(CCC(=O)NC(C)CO)cc2)=C(C)C1=O` (centres unmarked) [Prod. Ex. 104]: the IC50 amounted to 12 µM.
As for `CCOC(=O)C1CCCCN1C(=O)CCc1ccc(CC2=C(C)C(=O)C(OC)=C(OC)C2=O)cc1` (centres unmarked) [Prod. Ex. 105], the IC50 turned out to be 16 µM.
Still for that read-out and setting: with `COC1=C(OC)C(=O)C(Cc2ccc(CCC(=O)N3CCC[C@H]3C(N)=O)cc2)=C(C)C1=O` [Prod. Ex. 106] the figure was 7 µM.
Still for that read-out and setting: with `COC1=C(OC)C(=O)C(Cc2ccc(CCC(=O)Nc3ccc(CC#N)cc3)cc2)=C(C)C1=O` [Prod. Ex. 111] the figure was 14 µM; with `CCCCCc1ccc(NC(=O)CCc2ccc(CC3=C(C)C(=O)C(OC)=C(OC)C3=O)cc2)cc1` [Prod. Ex. 113], 16 µM; with `COC1=C(OC)C(=O)C(Cc2ccc(CCC(=O)N[C@@H](C)c3ccccc3)cc2)=C(C)C1=O` [Prod. Ex. 120], 2 µM.
With `COC1=C(OC)C(=O)C(Cc2ccc(CCC(=O)N[C@H](C)c3ccccc3)cc2)=C(C)C1=O` [Prod. Ex. 121], the IC50 amounted to 7 µM.
Still for that read-out and setting: with `COC1=C(OC)C(=O)C(Cc2ccc(CCC(=O)NC(C)CC(C)C)cc2)=C(C)C1=O` (centres unmarked) [Prod. Ex. 128] the figure was 19 µM; with `COC1=C(OC)C(=O)C(Cc2ccc(CCC(=O)NC3CCCCCC3)cc2)=C(C)C1=O` [Prod. Ex. 136], 18 µM; with `COC1=C(OC)C(=O)C(Cc2ccc(CCC(=O)N3CC(C)CC(C)C3)cc2)=C(C)C1=O` (centres unmarked) [Prod. Ex. 137], 7 µM.
For the molecule `CCOC(=O)N1CCN(C(=O)CCc2ccc(CC3=C(C)C(=O)C(OC)=C(OC)C3=O)cc2)CC1` [Prod. Ex. 147], the IC50 came to 47 µM.
As for `COC1=C(OC)C(=O)C(Cc2ccc(CCC(=O)N3CCN(c4ccccc4)CC3)cc2)=C(C)C1=O` [Prod. Ex. 148], the IC50 was determined as 25 µM.
The same measure, in the same setting: with `COC1=C(OC)C(=O)C(Cc2ccc(CCC(=O)N3CCC(O)(c4ccccc4)CC3)cc2)=C(C)C1=O` [Prod. Ex. 151] the figure was 20 µM; with `COC1=C(OC)C(=O)C(Cc2ccc(CCC(=O)N3CCC(O)(c4ccc(Cl)cc4)CC3)cc2)=C(C)C1=O` [Prod. Ex. 154], 28 µM.
Still for that read-out and setting: with `COC1=C(OC)C(=O)C(Cc2ccc(CCC(=O)N3CCN(c4ccccc4OC)CC3)cc2)=C(C)C1=O` [Prod. Ex. 163] the figure was 19 µM.
Turning to `COC1=C(OC)C(=O)C(Cc2ccc(CCC(=O)N3CCc4cc(OC)c(OC)cc4C3)cc2)=C(C)C1=O` [Prod. Ex. 167], the IC50 worked out at 15 µM.
On the same count and under the same terms, with `COC1=C(OC)C(=O)C(Cc2ccc(CCC(=O)N3CCC(C(C)=O)(c4ccccc4)CC3)cc2)=C(C)C1=O` [Prod. Ex. 168] the figure was 9 µM; with `COC1=C(OC)C(=O)C(Cc2ccc(CCC(=O)N3CCc4ccccc4C3)cc2)=C(C)C1=O` [Prod. Ex. 169], 43 µM; with `COC1=C(OC)C(=O)C(Cc2ccc(CCC(=O)NCCC(C)C)cc2)=C(C)C1=O` [Prod. Ex. 173], 36 µM.
Still for that read-out and setting: with `COC1=C(OC)C(=O)C(Cc2ccc(CCC(=O)NC3CCCCC3)cc2)=C(C)C1=O` [Prod. Ex. 175] the figure was 19 µM; with `COC1=C(OC)C(=O)C(Cc2ccc(CCC(=O)Nc3ccc(O)cc3)cc2)=C(C)C1=O` [Prod. Ex. 189], 28 µM.
The same measure, in the same setting: with `Cc1csc2ncnc(NC3Cc4ccccc4C3)c12` [Prod. Ex. 190, 4-(2-Indanylamino)-5-methylthieno[2,3-d]pyrimidine] the figure was 0.71 µM; with `CC(C)c1csc2ncnc(NC3Cc4ccccc4C3)c12` [Prod. Ex. 211, 4-(2-Indanylamino)-5-isopropylthieno[2,3-d]pyrimidine], 0.064 µM; with `Cc1csc2ncnc(NC3Cc4ccc(Oc5ccccc5)cc4C3)c12` (centres unmarked) [Prod. Ex. 214, 4-(5-Phenoxyindan-2-yl)amino-5-methylthieno[2,3-d]pyrimidine], 0.15 µM.
On to `Cc1csc2ncnc(NC3Cc4ccc(C(=O)NCc5ccccc5)cc4C3)c12` (centres unmarked) [Prod. Ex. 220, N-Benzyl-2-(5-methylthieno[2,3-d]pyrimidine-4-yl)amino-5-indan Carboxamide], for which the IC50 stood at 0.072 µM.

The test is the same for the next values; noted with them: Homo sapiens; A549/NF-κBLuc, TNF-α (500 ng/ml) for 4 hours, luciferase activity; read-out: IC50 (μM) TNF stimulation.
With `Cc1csc2ncnc(NC3Cc4ccccc4C3)c12` [Prod. Ex. 190, 4-(2-Indanylamino)-5-methylthieno[2,3-d]pyrimidine], the IC50 was 1.1 µM.
Take `CC(C)c1csc2ncnc(NC3Cc4ccccc4C3)c12` [Prod. Ex. 211, 4-(2-Indanylamino)-5-isopropylthieno[2,3-d]pyrimidine]: the IC50 was 0.13 µM.
For `Cc1csc2ncnc(NC3Cc4ccc(C(=O)NCc5ccccc5)cc4C3)c12` (centres unmarked) [Prod. Ex. 220, N-Benzyl-2-(5-methylthieno[2,3-d]pyrimidine-4-yl)amino-5-indan Carboxamide], the IC50 came to 0.12 µM.
